Like-named read-outs stand apart in the source and are kept apart here.
Key:
Format in all cases: cell-based
[1] = test system: Unconfirmed Vancomycin-intermediate Staphylococcus aureus Isolates; assay: MIC assay (NCCLS broth dilution), unconfirmed VISA isolates; details: for MIC: read-out: Minimal Inhibitory Concentration
Outline: (§1)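 Staphylococcal isolates and QC strains (S. aureus ATCC 29213, E. faecalis ATCC 29212) tested by NCCLS broth dilution in Mueller Hinton II broth. Agents run as 11 two-fold serial dilutions, with novobiocin combined with tetracycline or minocycline at 2.5:1. Vancomycin was the control.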

[2] = test system: Unconfirmed Vancomycin-intermediate Staphylococcus epidermidis Isolates; assay: MIC assay (NCCLS broth dilution), unconfirmed VISE isolates; details: for MIC: read-out: Minimal Inhibitory Concentration
Outline: as §1

[3] = test system: Methicillin-Susceptible Staphylococcus aureus Isolates; assay: MIC assay (NCCLS broth dilution), MSSA clinical isolates
Outline: as §1

[4] = test system: Linezolid-Resistant Staphylococcus aureus Isolates; assay: MIC assay (NCCLS broth dilution), LRSA isolates; details: for MIC: read-out: Minimal Inhibitory Concentration
Outline: as §1

[5] = test system: Vancomycin-intermediate Staphylococcus aureus Isolates; assay: MIC assay (NCCLS broth dilution), VISA isolates; details: for MIC: read-out: Minimal Inhibitory Concentration
Outline: as §1

[6] = test system: Vancomycin-intermediate Staphylococcus epidermidis Isolates; assay: MIC assay (NCCLS broth dilution), VISE isolates; details: for MIC: read-out: Minimal Inhibitory Concentration
Outline: as §1

[7] = test system: Enterococcus faecalis (ATCC 29212); assay: MIC assay, quality control strain E. faecalis ATCC 29212; details: ATCC29212, E. faecalis ATCC 29212, repeat runs 22FEB06-09MAR06, combinations at 2.5:1, read-out: Minimal Inhibitory Concentration, quality control
Outline: as §1

[8] = Staphylococcus aureus, 52 MSSA isolates, combinations at 2.5:1, given as NB/partner

MIC Range ([1]; 6 unconfirmed VISA isolates (vancomycin MIC 4 ug/ml), combinations at 2.5:1): ≦.04-.15 μg/ml
MIC ([1]; Staphylococcus aureus, Unconfirmed VISA isolate 2013, 03MAR06): 0.08 µg/mL
MIC ([1]; Staphylococcus aureus, Unconfirmed VISA isolate 2014, 03MAR06): 0.15 µg/mL
MIC ([1]; Staphylococcus aureus, Unconfirmed VISA isolate 2015, 03MAR06): ≤ 0.04 µg/mL
MIC ([1]; Staphylococcus aureus, Unconfirmed VISA isolate 2016, 03MAR06): ≤ 0.04 µg/mL
MIC ([1]; Staphylococcus aureus, Unconfirmed VISA isolate 2017, 03MAR06): 0.15 µg/mL
MIC ([1]; Staphylococcus aureus, Unconfirmed VISA isolate 2019, 03MAR06): ≤ 0.04 µg/mL
MIC50 ([1]; Staphylococcus aureus, 6 unconfirmed VISA isolates (vancomycin MIC 4 ug/ml), combinations at 2.5:1): ≤ 0.04 µg/mL
MIC Range ([2]; 3 unconfirmed VISE isolates, combinations at 2.5:1): ≦.04-5 μg/ml
MIC ([2]; Staphylococcus epidermidis, Unconfirmed VISE isolate 2024, 09MAR06): 5 µg/mL
MIC ([2]; Staphylococcus epidermidis, Unconfirmed VISE isolate 2025, 09MAR06): 0.312 µg/mL
MIC ([2]; Staphylococcus epidermidis, Unconfirmed VISE isolate 2026, 03MAR06): ≤ 0.04 µg/mL
MIC50 ([2]; Staphylococcus epidermidis, 3 unconfirmed VISE isolates, combinations at 2.5:1): 0.312 µg/mL
MIC Range ([3]; 52 MSSA isolates, Mueller Hinton II Broth, combinations at 2.5:1, given as NB/partner): .08 to 10 µg/mL
MIC ([3]; Staphylococcus aureus, MSSA isolate 133, 03MAR06, read-out: Minimal Inhibitory Concentration): 0.15 µg/mL
MIC ([3]; Staphylococcus aureus, MSSA isolate 134, 03MAR06, read-out: Minimal Inhibitory Concentration): 0.08 µg/mL
MIC ([3]; Staphylococcus aureus, MSSA isolate 135, 03MAR06, read-out: Minimal Inhibitory Concentration): 0.31 µg/mL
MIC ([3]; Staphylococcus aureus, MSSA isolate 753, 22FEB06, read-out: Minimal Inhibitory Concentration): 0.31 µg/mL
MIC ([3]; Staphylococcus aureus, MSSA isolate 754, 22FEB06, read-out: Minimal Inhibitory Concentration): 0.31 µg/mL
MIC ([3]; Staphylococcus aureus, MSSA isolate 754, 24FEB06, read-out: Minimal Inhibitory Concentration): 0.31 µg/mL
MIC ([3]; Staphylococcus aureus, MSSA isolate 755, 22FEB06, read-out: Minimal Inhibitory Concentration): 0.31 µg/mL
MIC ([3]; Staphylococcus aureus, MSSA isolate 756, 03MAR06, read-out: Minimal Inhibitory Concentration): 0.15 µg/mL
MIC ([3]; Staphylococcus aureus, MSSA isolate 779, 22FEB06, read-out: Minimal Inhibitory Concentration): 0.31 µg/mL
MIC ([3]; Staphylococcus aureus, MSSA isolate 780, 03MAR06, read-out: Minimal Inhibitory Concentration): 0.31 µg/mL
MIC ([3]; Staphylococcus aureus, MSSA isolate 781, 03MAR06, read-out: Minimal Inhibitory Concentration): 0.15 µg/mL
MIC ([3]; Staphylococcus aureus, MSSA isolate 782, 22FEB06, read-out: Minimal Inhibitory Concentration): 0.15 µg/mL
MIC ([3]; Staphylococcus aureus, MSSA isolate 783, 22FEB06, read-out: Minimal Inhibitory Concentration): 0.31 µg/mL
MIC ([3]; Staphylococcus aureus, MSSA isolate 784, 22FEB06, read-out: Minimal Inhibitory Concentration): 0.31 µg/mL
MIC ([3]; Staphylococcus aureus, MSSA isolate 785, 22FEB06, read-out: Minimal Inhibitory Concentration): 0.15 µg/mL
MIC ([3]; Staphylococcus aureus, MSSA isolate 786, 22FEB06, read-out: Minimal Inhibitory Concentration): 0.15 µg/mL
MIC ([3]; Staphylococcus aureus, MSSA isolate 787, 22FEB06, read-out: Minimal Inhibitory Concentration): 0.15 µg/mL
MIC ([3]; Staphylococcus aureus, MSSA isolate 788, 22FEB06, read-out: Minimal Inhibitory Concentration): 0.15 µg/mL
MIC ([3]; Staphylococcus aureus, MSSA isolate 789, 24FEB06, read-out: Minimal Inhibitory Concentration): 0.31 µg/mL
MIC ([3]; Staphylococcus aureus, MSSA isolate 790, 24FEB06, read-out: Minimal Inhibitory Concentration): 0.31 µg/mL
MIC ([3]; Staphylococcus aureus, MSSA isolate 791, 24FEB06, read-out: Minimal Inhibitory Concentration): 0.15 µg/mL
MIC ([3]; Staphylococcus aureus, MSSA isolate 792, 03MAR06, read-out: Minimal Inhibitory Concentration): 0.15 µg/mL
MIC ([3]; Staphylococcus aureus, MSSA isolate 793, 24FEB06, read-out: Minimal Inhibitory Concentration): 0.31 µg/mL
MIC ([3]; Staphylococcus aureus, MSSA isolate 794, 24FEB06, read-out: Minimal Inhibitory Concentration): 0.31 µg/mL
MIC ([3]; Staphylococcus aureus, MSSA isolate 994, 22FEB06, read-out: Minimal Inhibitory Concentration): 0.15 µg/mL
MIC ([3]; Staphylococcus aureus, MSSA isolate 995, 03MAR06, read-out: Minimal Inhibitory Concentration): 0.31 µg/mL
MIC ([3]; Staphylococcus aureus, MSSA isolate 996, 22FEB06, read-out: Minimal Inhibitory Concentration): 0.31 µg/mL
MIC ([3]; Staphylococcus aureus, MSSA isolate 997, 22FEB06, read-out: Minimal Inhibitory Concentration): 0.31 µg/mL
MIC ([3]; Staphylococcus aureus, MSSA isolate 998, 03MAR06, read-out: Minimal Inhibitory Concentration): 0.31 µg/mL
MIC ([3]; Staphylococcus aureus, MSSA isolate 999, 22FEB06, read-out: Minimal Inhibitory Concentration): 0.15 µg/mL
MIC ([3]; Staphylococcus aureus, MSSA isolate 1000, 24FEB06, read-out: Minimal Inhibitory Concentration): 0.15 µg/mL
MIC ([3]; Staphylococcus aureus, MSSA isolate 1001, 24FEB06, read-out: Minimal Inhibitory Concentration): 0.31 µg/mL
MIC ([3]; Staphylococcus aureus, MSSA isolate 1002, 24FEB06, read-out: Minimal Inhibitory Concentration): 0.15 µg/mL
MIC ([3]; Staphylococcus aureus, MSSA isolate 1003, 03MAR06, read-out: Minimal Inhibitory Concentration): 0.08 µg/mL
MIC ([3]; Staphylococcus aureus, MSSA isolate 1005, 24FEB06, read-out: Minimal Inhibitory Concentration): 0.08 µg/mL
MIC ([3]; Staphylococcus aureus, MSSA isolate 1006, 24FEB06, read-out: Minimal Inhibitory Concentration): 0.31 µg/mL
MIC ([3]; Staphylococcus aureus, MSSA isolate 1007, 24FEB06, read-out: Minimal Inhibitory Concentration): 0.31 µg/mL
MIC ([3]; Staphylococcus aureus, MSSA isolate 1008, 24FEB06, read-out: Minimal Inhibitory Concentration): 0.625 µg/mL
MIC ([3]; Staphylococcus aureus, MSSA isolate 1009, 24FEB06, read-out: Minimal Inhibitory Concentration): 0.15 µg/mL
MIC ([3]; Staphylococcus aureus, MSSA isolate 1131, 24FEB06, read-out: Minimal Inhibitory Concentration): 0.15 µg/mL
MIC ([3]; Staphylococcus aureus, MSSA isolate 1132, 03MAR06, read-out: Minimal Inhibitory Concentration): 0.15 µg/mL
MIC ([3]; Staphylococcus aureus, MSSA isolate 1133, 24FEB06, read-out: Minimal Inhibitory Concentration): 0.15 µg/mL
MIC ([3]; Staphylococcus aureus, MSSA isolate 1134, 24FEB06, read-out: Minimal Inhibitory Concentration): 0.31 µg/mL
MIC ([3]; Staphylococcus aureus, MSSA isolate 1654, 03MAR06, read-out: Minimal Inhibitory Concentration): 0.31 µg/mL
MIC ([3]; Staphylococcus aureus, MSSA isolate 1656, 03MAR06, read-out: Minimal Inhibitory Concentration): 0.15 µg/mL
MIC ([3]; Staphylococcus aureus, MSSA isolate 1662, 03MAR06, read-out: Minimal Inhibitory Concentration): 0.15 µg/mL
MIC ([3]; Staphylococcus aureus, MSSA isolate 1663, 03MAR06, read-out: Minimal Inhibitory Concentration): 0.15 µg/mL
MIC ([3]; Staphylococcus aureus, MSSA isolate 1666, 03MAR06, read-out: Minimal Inhibitory Concentration): 0.31 µg/mL
MIC ([3]; Staphylococcus aureus, MSSA isolate 1667, 03MAR06, read-out: Minimal Inhibitory Concentration): 0.15 µg/mL
MIC ([3]; Staphylococcus aureus, MSSA isolate 1668, 03MAR06, read-out: Minimal Inhibitory Concentration): 0.15 µg/mL
MIC ([3]; Staphylococcus aureus, MSSA isolate 1671, 03MAR06, read-out: Minimal Inhibitory Concentration): 0.15 µg/mL
MIC ([3]; Staphylococcus aureus, MSSA isolate 1728, 03MAR06, read-out: Minimal Inhibitory Concentration): 10 µg/mL
MIC ([3]; Staphylococcus aureus, MSSA isolate 1728, retest 09MAR06, read-out: Minimal Inhibitory Concentration): 10 µg/mL
MIC ([3]; Staphylococcus aureus, MSSA isolate #1728 (novobiocin-resistant), read-out: MIC): 10 µg/mL
MIC50 [3, 8]: 0.15 µg/mL
MIC90 [3, 8]: 0.312 µg/mL
MIC Range ([3]; the other 51 MSSA isolates (without #1728)): 0.08 to 0.62 µg/mL
MIC Range ([4]; 3 LRSA isolates, combinations at 2.5:1): 0.15 µg/mL
MIC ([4]; Staphylococcus aureus, LRSA isolate 1651, 24FEB06): 0.15 µg/mL
MIC ([4]; Staphylococcus aureus, LRSA isolate 1652, 24FEB06): 0.15 µg/mL
MIC ([4]; Staphylococcus aureus, LRSA isolate 1725, 24FEB06): 0.15 µg/mL
MIC50 ([4]; Staphylococcus aureus, 3 LRSA isolates, combinations at 2.5:1): 0.15 µg/mL
MIC Range ([5]; 2 VISA isolates, combinations at 2.5:1, given as NB/partner): ≦.04-.08 μg/ml
MIC ([5]; Staphylococcus aureus, VISA isolate 2012, 03MAR06): 0.08 µg/mL
MIC ([5]; Staphylococcus aureus, VISA isolate 2018, 03MAR06): ≤ 0.04 µg/mL
MIC50 ([5]; Staphylococcus aureus, 2 VISA isolates, combinations at 2.5:1, given as NB/partner): ≤ 0.04 µg/mL
MIC Range ([6]; 4 VISE isolates, combinations at 2.5:1): ≦.04-.08 μg/ml
MIC ([6]; Staphylococcus epidermidis, VISE isolate 2020, 09MAR06): 0.08 µg/mL
MIC ([6]; Staphylococcus epidermidis, VISE isolate 2021, 09MAR06): ≤ 0.04 µg/mL
MIC ([6]; Staphylococcus epidermidis, VISE isolate 2022, 03MAR06): ≤ 0.04 µg/mL
MIC ([6]; Staphylococcus epidermidis, VISE isolate 2023, 03MAR06): < 0.04 µg/mL
MIC50 ([6]; Staphylococcus epidermidis, 4 VISE isolates, combinations at 2.5:1): ≤ 0.04 µg/mL
MIC [7]: 5 µg/mL
SMILES: CO[C@@H]1[C@@H](OC(N)=O)[C@@H](O)[C@H](Oc2ccc3c(O)c(NC(=O)c4ccc(O)c(CC=C(C)C)c4)c(=O)oc3c2C)OC1(C)C [NB, novobiocin]

— patent publication US20070281992A1, “COMBINATION OF GYRASE B INHIBITORS AND PROTEIN SYNTHESIS INHIBITORS AND USES THEREOF” (priority 2006, published 2007)
